Test results taken from patent publication US9289490B2, “Combinations and uses thereof” (MORPHOSYS AG, priority 2010, dated 2016).
Where “and” joins values, the source holds several entries; their conditions need not be identical. Equal entries are not always repeated.

Key:
[1] = test system: AMO-1 cells; experiment: CD38 surface expression after lenalidomide (FACS, ABC); assay type: cell-based, human
Procedure: (§1) Cells were stained with a directly labelled QuantiBRITE™ CD38-PE antibody (Becton Dickinson GmbH, Clone HB7, CAT #342371), which is specific for CD38. The “Antibodies Bound Per Cell” (ABC's) were determined using the flow cytometry based QuantiBRITE™ system, which measures the geometric mean (GeoMean) per cell. Conversion of measured GeoMean into correlating ABC amount per cell was done with GraphPad PRISM™ software. The ABC values are assumed to correlate with the number of CD38 molecules per cell, since QuantiBRITE™ CD38-PE carries one PE molecule per antibody.
(§2) To determine whether lenalidomide induced upregulation of CD38 in the multiple myeloma and plasmacytoma cells of Table 1, the cell lines were incubated with 100 μM lenalidomide and, subsequently, CD38 surface expression was analyzed by FACS.
(§3) Around 2×10^5 cells of each of the cells lines of Table 1 were plated on 48-well dishes in standard RPMI medium. Lenalidomide, purchased from Selleck Chemicals (LLC S1029, CAS No. 191732-6; Batch: S10290), was applied to respective wells to a final concentration of 100 μM in a volume of 750 μl containing 20% FCS and 0.1% DMSO.
(§4) Cells were resuspended by gentle pipetting and 250 μl of cell suspension per incubation period were transferred into a well of a 96-well round bottom plate. Cells were washed by centrifugation for 1 min at 700×g and were resuspended in 150 μl of cold FACS buffer (1×PBS supplemented with 3% FCS). Cells were again pelleted down by centrifugation and were resuspended in 150 μl of FACS buffer containing 15 μg/ml of anti-CD38 antibody (MOR202, IgG1) or control antibody MOR03207 and incubated for 1 h on ice. Cells were then washed 3 times by centrifugation and were resuspended in FACS buffer supplemented with PE-labeled secondary antibody (PE-Fab2 fragment, goat anti-human IgG. Fc-fragment specific; Jackson Immuno Research; CAT: 109-116-098; Lot: 80938). Cells were incubated for 45 minutes on ice, then washed 3 times by centrifugation and resuspended in FACS buffer. The cell suspensions were then subjected to FACS analysis using a FACS array device.
(§5) Additionally, the affect of lenalidomide on the CD38 expression of AMO-1 cells is shown in FIG. 1, and the affect of lenalidomide on the CD38 expression of NCI-H929 cells is shown in FIG. 5.

[2] = test system: LP-1 cells; experiment: as above; assay type: cell-based, human
Procedure: as §1, §2, §3, §4, §5

[3] = test system: NCI-H929 cells; experiment: as above; assay type: cell-based, human
Procedure: as §1, §2, §3, §4, §5

[4] = test system: OPM-2 cells; experiment: as above; assay type: cell-based, human
Procedure: as §1, §2, §3, §4, §5

[5] = test system: RPMI-8226 cells; experiment: as above; assay type: cell-based, human
Procedure: as §1, §2, §3, §4, §5

[6] = test system: Plasmacytoma, Malignant Plasma Cells; experiment: as above; assay type: cell-based, human
Procedure: Bone marrow samples (4-10 ml aspirate) from multiple myeloma patients and extramedullary tumor plasmacytoma samples were obtained after informed consent from the Klinikum rechts der Isar (“KrdI”) (Munich, Germany). Samples were subjected to centrifugation, and further plasma cell enrichment was achieved via magnetic-activated cell sorting.
as §1, §2, §3
Cells were resuspended by gentle pipetting and 250 μl of cell suspension per incubation period were transferred into a well of a 96-well round bottom plate. Cells were washed by centrifugation for 1 min at 700×g and were resuspended in 150 μl of cold FACS buffer (1×PBS supplemented with 3% FCS). Cells were again pelleted down by centrifugation and were resuspended in 150 μl of FACS buffer containing 15 μg/ml of anti-CD38 antibody (MOR202, IgG1) or control antibody MOR03207 and incubated for 1 h on ice. […]

[7] = test system: AMO-1 cells; experiment: Cell proliferation, XTT-based assay; parameters: species or system human
Procedure: (§6) Cells were collected and distributed in 96-well plates with 5000 cells per well.
(§7) After incubation, plates were analyzed for cell proliferation in a quantitative colorimietric XTT-based assay using the cell proliferation kit II (ROCHE, Cell Proliferation Kit II, Cat. No.: 11465015001). For subsequent measurement plates were subjected to Tecan Genios Reader and absorbance at 492 nm was detected.
(§8) Increasing amounts of Bortezomib (Velcade®, Lot: No.: #9AZSY00) were applied to AMO-1, LP-1, NCI-H929 and RPMI-8226 cells and incubated for 24 h, 48 h and 72 h. After incubation, period plates were analyzed for cell proliferation in a quantitative colorimietric XTT-based assay using the cell proliferation kit II (ROCHE, Cell Proliferation Kit II, Cat. No.: 11465015001). For subsequent measurement, plates were subjected to Tecan Genios Reader and absorbance at 492 nm was detected.

[8] = test system: AMO-1 cells; experiment: ADCC with human PBMCs, flow cytometry (CalceinAM/PI); assay type: cell-based
Procedure: For Tables 3b-c, “Theoretical Combination” represents the addition of the values of MOR202 alone and the values of LEN alone. The normalized data of Table 3b is calculated as follows. Therefore, the specific killing values of Table 3b are calculated by subtracting the values of the controls. Then the specific killing values are compared to the MOR202 group, which is set as 1.
The constant m determines the shape of the dose-effect curve. We used Excel Fit software to carry out a linear regression calculation to estimate the parameters m and D50.
The CI-isobol method provides a quantitative assessment of synergism between drugs. A combination index (CI) is estimated from dose-effect data of single and combined drug treatments. […] Formally, the combination index (CI) of a combined drug treatment is defined as CI=D1/Dx1+D2/Dx2
The data is analysed in the following way: Antagonistic(AB)/C<(A/C)×(B/C) Additive(AB)/C=(A/C)×(B/C) Synergistic(AB)/C>(A/C)×(B/C) where A is the treatment with LEN alone; B is the treatment with MOR202 alone; C is response to the treatment vehicle; AB is combination of treatments A and B.

[9] = test system: NCI-H929 human multiple myeloma cells; experiment: NCI-H929 bone lysis SCID mouse MM model, MOR202 and LEN (MicroCT); assay type: in vivo, SCID mice
Procedure: 63 SCID mice were inoculated on Day (−7) orthotopically into the right tibia with 2.5×10^6 NCI-H929 MM cells (in 5 μL) in order to induce bone lysis. Lenalidomide (Groups A and D) and Vehicle Control (Group C) treatments started on Day (−1). MOR202 treatments (Groups B and D) started on Day 0. Treatment continued for 6 weeks.
MicroCT Scan was used to assess bone lysis and included […] analysis comprising Total Bone Volume (TBV), Trabecular Bone Volume (Tb.BV), Trabecular Pattern Factor (Tb.Pf) and Structure Model Index (SMI). Table 10 defines each of these parameters.

[10] = test system: NCI-H929 cells; settings: 5 µM
[11] = test system: NCI-H929 cells; experiment: Cell proliferation, XTT-based assay; settings: NCI-H929 cells
Procedure: as §6, §7, §8

[12] = LEN 50 mg/kg p.o. once daily, MOR202 3 mg/kg i.p. 3 times weekly, 6 weeks, lower = less bone lysis
[13] = group mean of 10 mice, LEN 50 mg/kg p.o., MOR202 3 mg/kg i.p., 6 weeks

For `Nc1cccc2c1CN(C1CCC(=O)NC1=O)C2=O` (stereo not drawn) [LEN, lenalidomide], the “Absolute number of ABC (CD38 expression) LEN (extrapolated)” value (shortened to “Absolute number of ABC … (extrapolated)”) ([1]; 100 μM lenalidomide) was 115,000 ABC, the “Absolute number of ABC (CD38 expression) INCREASE” value ([1]; 100 μM lenalidomide vs basal) was 90,000 ABC and the “Fold increase (CD38 expression)” value ([1]; 100 μM lenalidomide vs basal) was 4.5 fold. The “Absolute number of ABC … (extrapolated)” value ([2]; 100 μM lenalidomide) was 162,500 ABC, the “Effect (on CD38 expression)” value ([2]; 100 μM lenalidomide) was “No” and the “Absolute number of ABC (CD38 expression) INCREASE” value ([2]; 100 μM lenalidomide vs basal) was 37,500 ABC. The “Fold increase (CD38 expression)” value ([2]; 100 μM lenalidomide vs basal) was 1.3 fold, the “Absolute number of ABC … (extrapolated)” value ([3]; 100 μM lenalidomide) was 390,000 ABC and the “Effect (on CD38 expression)” value ([3]; 100 μM lenalidomide) was “Weak”. The “Absolute number of ABC (CD38 expression) INCREASE” value ([3]; 100 μM lenalidomide vs basal) was 195,000 ABC, the “Fold increase (CD38 expression)” value ([3]; 100 μM lenalidomide vs basal) was 2.0 fold and the “Absolute number of ABC … (extrapolated)” value ([4]; 100 μM lenalidomide) was 98,800 ABC. The “Absolute number of ABC (CD38 expression) INCREASE” value ([4]; 100 μM lenalidomide vs basal) was 60,800 ABC, the “Fold increase (CD38 expression)” value ([4]; 100 μM lenalidomide vs basal) was 2.6 fold and the “Absolute number of ABC … (extrapolated)” value ([5]; 100 μM lenalidomide) was 871,000 ABC. For the same compound, the “Effect (on CD38 expression)” value ([5]; 100 μM lenalidomide) was “Weak”, the “Absolute number of ABC (CD38 expression) INCREASE” value ([5]; 100 μM lenalidomide vs basal) was 199,000 ABC and the “Fold increase (CD38 expression)” value ([5]; 100 μM lenalidomide vs basal) was 1.3 fold. The “Absolute number of ABC … (extrapolated)” value ([6]; 100 μM lenalidomide) was 69,000 ABC, the “Absolute number of ABC (CD38 expression) INCREASE” value ([6]; 100 μM lenalidomide vs basal) was 39,000 ABC and the “Fold increase (CD38 expression)” value ([6]; 100 μM lenalidomide vs basal) was 2.3 fold. The “Cytotoxicity of lenalidomide alone (in words)” value [7] was “low cytotoxity against AMO-1 cells”, the “Cell killing by lenalidomide alone (in words)” value ([8]; AMO-1 cells) was “no effect on AMO-1 cells regarding cell killing” and the “Enhancement of MOR202 ADCC activity by LEN (in words)” value ([8]; AMO-1 cells, Clarke et al. all 6 experiments, Chou et al. 6 out of 6) was “synergistically enhanced MOR202 ADCC activity”. For the same compound, the “Normalized specific killing, theoretical combination set as 1, AVERAGE (Table 3c)” value ([8]; PBMCs and AMO-1 cells treated with LEN, MOR202 0.42 μg/ml, LEN 5 μM, average of 3 experiments) was 0.2, the “% dead cells (raw data, Table 4a)” value ([8]; only PBMCs (effector cells) treated with LEN before MOR202, LEN 10 μM, MOR202 and MOR03207 15 μg/ml, Exp. 1-3) was 17.93 % dead cells and 15.33 % dead cells and 12.98 % dead cells and the “Normalized specific killing, theoretical combination set as 1, AVERAGE (Table 4c)” value ([8]; only effector cells treated with LEN, MOR202 0.42 μg/ml, LEN 5 μM, average of 3 experiments) was 0.1. For the same compound, the “Structure Model Index (SMI), individual mouse” value [9, 12] was 2.679 and 2.667 and 2.335 and 2.560 and 2.086 and 2.619 and 2.562 and 2.592 and 2.547 and 3.125, the “Trabecular Pattern Factor (Tb · Pf), individual mouse” value [9, 12] was 24.329 mm^−1 and 23.561 mm^−1 and 22.893 mm^−1 and 28.280 mm^−1 and 22.213 mm^−1 and 30.739 mm^−1 and 24.016 mm^−1 and 29.454 mm^−1 and 24.205 mm^−1 and 38.360 mm^−1 and the “Structure Model Index (SMI), Mean” value [9, 13] was 2.577. For the same compound, the “Trabecular Pattern Factor (Tb · Pf), Mean” value [9, 13] was 26.805 mm^−1, the “Reduction of bone lysis compared to vehicle control” value ([9]; non-inoculated tibia = 0%, vehicle = 100% bone lysis, MOR202 alone 12 mg/kg, LEN alone 50 mg/kg, combination 3 mg/kg MOR202 and 50 mg/kg LEN) was 20% and the “Normalized specific killing, fractional product combination set as 1 (Table 7b), Exp. 1” value [10] was 0.67. The “Normalized specific killing, fractional product combination set as 1 (Table 8b), Exp. 1” value [10] was −0.10, the “Inhibition of cell proliferation by lenalidomide alone (in words)” value [11] was “significant effect on the proliferation of NCI-H929 cells” and the “Inhibition of cell proliferation by lenalidomide alone (in words)” value ([11]; listed as Lenalidomide) was “signficantly inhibited cell proliferation”.
